Experimental data published in US10696989B2, “Biological method for preparing heme iron not derived from porcine blood” (INTRON BIOTECHNOLOGY, INC., priority 2017, dated 2020).

Tested on: iron-deficiency-anemia-induced animals
Assay: Effectiveness of heme iron salt on alleviating anemia in iron-deficiency-anemia-induced rats
Assay type: in vivo, Sprague-Dawley rats
Conditions: oral once a day, 0.1 mg Fe/500 μl saline
Experimental: The salt of the heme iron prepared according to the present invention was dissolved in saline and administered to iron-deficiency-anemia-induced animals, whereby the effectiveness of the salt of the heme iron prepared according to the present invention on alleviating anemia was evaluated. Specifically, thirty 7-week-old Sprague-Dawley rats (female) were divided into 3 groups of 10 rats per group, among which one group was fed with normal feed in an amount of 10% of body weight daily for one month (Group 1; control), and the remaining two groups were fed with iron-deficient feed in an amount of 10% of body weight daily for one month to induce iron-deficiency anemia (Group 2 and Group 3). After one month of feeding, it was confirmed that iron-deficiency anemia was induced in the individual rat belonging to Group 2 and Group 3. Then, one of the anemia-induced groups was orally administered once a day with saline alone (Group 2), and the other anemia-induced group was orally administered once a day with saline containing heme iron (0.1 mg Fe/500 μl saline) (Group 3). The administration continued for 30 days, and the occurrence of abnormal symptoms was monitored during the administration period. After 30 days of administration, blood was collected, and whether anemia was alleviated was evaluated. During 30 days of administration to Group 2 and Group 3, Group 1 was continuously fed with normal feed, and Group 2 and Group 3 were fed with iron-deficient feed. […]

[1] = female rats on iron-deficient feed, blood collected after 30 days

Weight of rats on 30th day after administration (female rats on iron-deficient feed, 30 days): 265.2 ± 1.1 g
Occurrence of abnormal symptoms during the administration period (30 days): no abnormal symptoms
Substance: heme iron
Blood test: Hematocrit [1]: 35.8 ± 1.9%
Blood test: Hemoglobin content [1]: 14.2 ± 0.4 g/dL
Blood test: Mean corpuscular volume [1]: 48.2 ± 2.2 fL
Blood test: RBC [1]: 8.59 ± 0.1 ×10^6/μl
Alleviation of iron-deficiency anemia (conclusion) (30 days): effective at alleviating iron-deficiency anemia
